# From ChEMBL document CHEMBL5728364, “Compounds as autotaxin inhibitors and pharmaceutical compositions comprising the same” (2021)
# pIC50: −log10 of the molar value.
# Target: Autotaxin (Homo sapiens, UniProt Q13822)
# Test: Inhibitory Activity Assay: Two-fold dilution of each test compound solution (10 μM, 100% dimethyl sulfoxide) is carried out on 96-well V bottom plate (Costar 3363). After ten-fold dilution of each the test compound solution (100% dimethyl sulfoxide) with deionized distilled water, 10 μL of the diluted each mpound solution (10% dimethyl sulfoxide) was aliquoted to a black flat bottom 96-well plate (Costar 3915). 50 μL of 1.6× Assay solution (224 mM NaCl, 80 mM Tris-HCl (pH 8.0), 8 mM KCl, 1.6 mM CaCl2, 1.6 mM MgCl2, and 1.6 mg/mL fatty acid free BSA) was added thereto, and subsequently 20 μL of 20 nM human ENPP2 solution (buffer solution: 140 mM NaCl, 50 mM Tris-HCl (pH 8.0), 5 mM KCl, 1 mM CaCl2, 1 mM MgCl2, and 1 mg/mL fatty acid free BSA) and 20 μL of 5 μM FS-3 solution (buffer solution:deionized distilled water) were added thereto, respectively, followed by mixing.
row,pIC50,Compound
1,8.34,NS(=O)(=O)NC1CCN(C(=O)Cc2nnc(-c3cnc(NC4Cc5ccccc5C4)nc3)o2)C1 (centres undefined)
2,8.54,O=C(Cn1cc(-c2cnc(NCc3cccc(OC(F)(F)F)c3)nc2)nn1)N1CCc2[nH]nnc2C1
3,8.54,O=C(NCCN1CCN(c2cnc(NC3Cc4ccccc4C3)nc2)CC1)c1ccc2[nH]c(=O)oc2c1
4,8.60,O=C(Cc1nc(-c2cnc(NC3Cc4ccccc4C3)nc2)no1)N1CCc2[nH]nnc2C1
